The values below come from publication PMC6556873, “Rapid Covalent-Probe Discovery by Electrophile-Fragment Screening” (Journal of the American Chemical Society, 2019).

The structures appear in SMILES notation. Read-outs that look alike come from different tables or passages of the source.

The target of data set [1] is T1, OTUB2 (OTUB2A) (Homo sapiens, UniProt Q96DC9).
T1 construct: full length residues 1-234, E. coli BL21(DE3)-R3, His tag removed by TEV, construct 27312 Da
T1 sequence (Q96DC9 1-234): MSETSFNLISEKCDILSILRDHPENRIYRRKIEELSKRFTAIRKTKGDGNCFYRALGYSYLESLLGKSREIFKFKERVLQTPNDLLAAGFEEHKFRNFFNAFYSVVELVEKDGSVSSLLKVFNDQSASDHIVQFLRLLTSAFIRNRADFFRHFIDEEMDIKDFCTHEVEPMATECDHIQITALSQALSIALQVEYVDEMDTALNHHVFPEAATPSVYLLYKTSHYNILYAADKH
Also on record: Intact protein LC/MS covalent labelling, fragments in pools of five, 200 uM each, 4 °C. Conditions: 24 h, 4 °C, pool of five; 200 µM; covalent.

Data set [2] concerns the target T2, NUDT7 (Homo sapiens, UniProt P0C024).
T2 construct: residues 14-235, E. coli, pNIC28-Bsa4, N-terminal His6 tag removed by TEV, construct 26672 Da
Also on record: Intact protein LC/MS covalent labelling, fragments in pools of five, 200 uM each, 4 °C. Conditions: 24 h, 4 °C, pool of five; 200 µM; covalent.

Data set [3] has as its target T3, PCAF (Homo sapiens, UniProt Q92831).
T3 construct: gene KAT2B
On the set-up: Intact protein LC/MS covalent labelling, fragments in pools of five, 200 uM each, 4 °C. Conditions: 24 h, 4 °C, pool of five; 200 µM; covalent.

Data set [4] concerns the target T4, BSA (Bos taurus, UniProt P02769).
T4 construct: gene ALB
Also on record: Intact protein LC/MS covalent labelling, fragments in pools of five, 200 uM each, 4 °C. Conditions: 24 h, 4 °C, pool of five; 200 µM; covalent.

The nature of data set [5]: in vitro. Conditions: human, hek293 cells. On the set-up: species or system HB2, CCD841.
Data set [6] can be described thus: in vitro. On the set-up: species or system HB2, HEK293. Conditions: human, ccd841 cells.
Data set [7] is described as follows: in vitro. Also on record: species or system CCD841, HEK293. Conditions: human, hb2 cells, read-out: HB-2 Cells Viability (%).

T3 sequence (Q92831 whole entry): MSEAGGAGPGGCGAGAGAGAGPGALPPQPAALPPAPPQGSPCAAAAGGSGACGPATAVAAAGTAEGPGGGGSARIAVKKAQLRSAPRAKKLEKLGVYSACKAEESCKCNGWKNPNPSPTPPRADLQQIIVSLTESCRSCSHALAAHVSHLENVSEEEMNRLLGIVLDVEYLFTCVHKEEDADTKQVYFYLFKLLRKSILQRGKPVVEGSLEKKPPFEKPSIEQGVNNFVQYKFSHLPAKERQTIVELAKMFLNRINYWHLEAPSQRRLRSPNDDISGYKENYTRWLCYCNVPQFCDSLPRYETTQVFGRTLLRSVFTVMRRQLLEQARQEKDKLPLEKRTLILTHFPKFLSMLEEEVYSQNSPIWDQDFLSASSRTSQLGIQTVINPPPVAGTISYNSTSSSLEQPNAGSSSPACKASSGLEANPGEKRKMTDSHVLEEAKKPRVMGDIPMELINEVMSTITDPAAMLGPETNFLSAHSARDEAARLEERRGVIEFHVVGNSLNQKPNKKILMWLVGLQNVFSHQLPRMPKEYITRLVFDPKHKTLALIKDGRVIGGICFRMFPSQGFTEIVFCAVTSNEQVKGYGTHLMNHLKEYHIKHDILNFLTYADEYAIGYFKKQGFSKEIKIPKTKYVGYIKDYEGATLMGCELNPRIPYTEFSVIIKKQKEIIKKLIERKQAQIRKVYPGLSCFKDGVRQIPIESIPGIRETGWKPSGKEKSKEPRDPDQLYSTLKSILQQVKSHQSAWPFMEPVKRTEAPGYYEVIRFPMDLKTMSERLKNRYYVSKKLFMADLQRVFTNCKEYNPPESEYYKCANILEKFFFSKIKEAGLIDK
T2 sequence (P0C024 14-235): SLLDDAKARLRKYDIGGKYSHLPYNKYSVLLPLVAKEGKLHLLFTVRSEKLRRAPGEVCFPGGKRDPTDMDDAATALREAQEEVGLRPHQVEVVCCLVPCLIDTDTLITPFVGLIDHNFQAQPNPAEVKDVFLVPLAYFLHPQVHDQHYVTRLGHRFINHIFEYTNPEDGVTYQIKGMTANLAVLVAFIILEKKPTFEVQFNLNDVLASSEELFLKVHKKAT
T4 sequence (P02769 whole entry): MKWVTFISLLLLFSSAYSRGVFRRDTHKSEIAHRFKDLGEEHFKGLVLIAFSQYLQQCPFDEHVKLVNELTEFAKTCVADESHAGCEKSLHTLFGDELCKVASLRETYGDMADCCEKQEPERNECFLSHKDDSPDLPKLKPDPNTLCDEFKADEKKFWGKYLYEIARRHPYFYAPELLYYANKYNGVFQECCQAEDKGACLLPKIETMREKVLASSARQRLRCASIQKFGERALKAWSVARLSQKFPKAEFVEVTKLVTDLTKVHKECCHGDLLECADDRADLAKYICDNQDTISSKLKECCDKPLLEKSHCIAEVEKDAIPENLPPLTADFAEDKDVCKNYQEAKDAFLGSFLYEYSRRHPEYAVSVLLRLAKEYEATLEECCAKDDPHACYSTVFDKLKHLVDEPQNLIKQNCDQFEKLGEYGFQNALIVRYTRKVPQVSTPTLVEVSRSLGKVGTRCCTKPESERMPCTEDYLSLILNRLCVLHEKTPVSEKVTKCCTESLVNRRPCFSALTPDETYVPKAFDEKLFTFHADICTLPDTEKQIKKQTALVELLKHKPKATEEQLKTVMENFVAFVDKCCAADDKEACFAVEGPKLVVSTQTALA

`O=C(CCl)N1CCCc2cc(S(=O)(=O)N3CCCC3)ccc21` [PCM-0102625] returned an OTUB2 in data set [1] of 0. In data set [2], this compound registered an NUDT7 of 0. For the same compound, the PCAF in data set [3] amounted to 0. In addition, the BSA in data set [4] is listed as 0. Also, the figures for the viability at 48 h, 10 µM in data set [5], in data set [6] and in data set [7] were 2.5%, 12.2% and 5.4%, respectively.

`CC(NC(=O)CCl)C1CC2CCC1C2` (stereo not drawn) [PCM-0102572]: the OTUB2 in data set [1] came out at 0. The compound also yielded an NUDT7 in data set [2] of 0. The PCAF in data set [3] worked out at 0. Moreover, the BSA in data set [4] is 0. For the same compound, the viability – broadly, a read-out of living cells in per cent, often relative to untreated cells – at 48 h, 10 µM in data set [5] worked out at 80.7%; in data set [6], 91.1%; in data set [7], 92%.

For `CN(Cc1ccccc1F)C(=O)CCl` [PCM-0102787], the OTUB2 in data set [1] came to 0. In addition, the NUDT7 in data set [2] was 0. In data set [3], the PCAF is recorded as 0. This compound also came in with a BSA in data set [4] of 0. Moreover, the viability at 48 h, 10 µM in data set [5] stood at 57.9%; in data set [6] it was 72.2%; in data set [7], 57.7%.

`N#CC(c1cccs1)N1CCN(C(=O)CCl)CC1` (stereo not drawn) [PCM-0102223] returned an OTUB2 in data set [1] of 0. The same compound gave an NUDT7 in data set [2] of 0. This compound had a PCAF in data set [3] of 0. The compound further displayed a BSA in data set [4] of 0. Besides, the viability at 48 h, 10 µM was found to be 64.6% in data set [5], 75.5% in data set [6] and 74% in data set [7].

`O=C(CCl)Nc1cccc2ccccc12` [PCM-0102396] came in with an OTUB2 in data set [1] of 0.54. Besides, the NUDT7 in data set [2] is on record as 0.12. This compound came in with a PCAF in data set [3] of 0. In addition, the BSA in data set [4] is 0. Also, the viability at 48 h, 10 µM in data set [5] came to 2.4%; in data set [6] it was 55.8%; in data set [7] it was 16.3%.

As to `O=C(CCl)NNC(=O)c1cccs1` [PCM-0102426], the OTUB2 in data set [1] came to 0.6. Further, the NUDT7 in data set [2] is recorded as 0. Further, in data set [3], the PCAF came to 0. In addition, in data set [4], the BSA was 0. Besides, the viability at 48 h, 10 µM in data set [5] stood at 82.8%; in data set [6], 88.7%; in data set [7], 86%.

`CC(C)(C)C(=O)NNC(=O)CCl` [PCM-0102855]: the OTUB2 in data set [1] stood at 0. Besides, the NUDT7 in data set [2] turned out to be 0.07. The compound also returned a PCAF in data set [3] of 0. The same compound displayed a BSA in data set [4] of 0. Besides, the viability at 48 h, 10 µM in data set [5] came out at 87.8%; in data set [6] it was 93.1%; in data set [7] it was 98.2%.

For the compound `N#Cc1ccccc1S(=O)(=O)N1CCN(C(=O)CCl)CC1` [PCM-0102395], in data set [1], the OTUB2 was 0. In addition, the NUDT7 in data set [2] was determined as 0.28. The compound further gave a PCAF in data set [3] of 0. For the same compound, the BSA in data set [4] amounted to 0. Further, the values for the viability at 48 h, 10 µM in data set [5], in data set [6] and in data set [7] were 9.7%, 62.6% and 11.2%, respectively.

`O=C(CCl)N1CCc2sccc2C1` [PCM-0102123] had an OTUB2 in data set [1] of 0.39. Besides, in data set [2], the NUDT7 was 0.14. In data set [3], this compound came in with a PCAF of 0. For the same compound, the BSA in data set [4] worked out at 0. In addition, the values for the viability at 48 h, 10 µM in data set [5], in data set [6] and in data set [7] were 6.6%, 73.1% and 9.2%, respectively.

For `CC1CCCCC1N(C)C(=O)CCl` (stereo not drawn) [PCM-0103026], the OTUB2 in data set [1] amounted to 0. In addition, the NUDT7 in data set [2] came to 0.12. This compound displayed a PCAF in data set [3] of 0. In addition, the BSA in data set [4] was found to be 0. Further, the viability at 48 h, 10 µM amounted to 31.2% in data set [5], 57% in data set [6] and 18.3% in data set [7].

In data set [1], `O=C(CCl)NC(=O)c1cccc2ccccc12` [PCM-0102694] showed an OTUB2 of 0. This compound also showed an NUDT7 in data set [2] of 0. Further, the PCAF in data set [3] is 0. This compound returned a BSA in data set [4] of 0. Further, the viability at 48 h, 10 µM turned out to be 111% in data set [5], 112% in data set [6] and 101% in data set [7].

`CC1CN(C(=O)CCl)CCO1` (stereo not drawn) [PCM-0102830] gave an OTUB2 in data set [1] of 0. For the same compound, the NUDT7 in data set [2] stood at 0. Moreover, in data set [3], the PCAF stood at 0. In addition, in data set [4], the BSA came out at 0. For the same compound, the viability at 48 h, 10 µM in data set [5] came out at 85.9%; in data set [6], 99.1%; in data set [7], 101%.

In data set [1], `Cl.O=C(CCl)N1CCN(Cc2ccccc2)CC1` [PCM-0103063] yielded an OTUB2 of 0.35. Besides, the NUDT7 in data set [2] turned out to be 0.07. The compound further came in with a PCAF in data set [3] of 0. In addition, the BSA in data set [4] is reported as 0. Moreover, the values for the viability at 48 h, 10 µM in data set [5], in data set [6] and in data set [7] were 60.1%, 81.1% and 72.1%, respectively.

In the case of `Cc1csc(NC(=O)CCl)n1.Cl` [PCM-0102872], the OTUB2 in data set [1] is on record as 0. The NUDT7 in data set [2] is on record as 0.16. In addition, in data set [3], the PCAF amounted to 0. In data set [4], this compound yielded a BSA of 0. Moreover, the figures for the viability at 48 h, 10 µM in data set [5], in data set [6] and in data set [7] were 91.9%, 94.9% and 90.4%, respectively.

The compound `O=C(CCl)Nc1cccc2ncccc12` [PCM-0102097] came in with an OTUB2 in data set [1] of 0.42. The compound also yielded an NUDT7 in data set [2] of 0. Moreover, in data set [3], the PCAF is on record as 0. In data set [4], this compound came in with a BSA of 0. The viability at 48 h, 10 µM in data set [5] was 27.9%; in data set [6], 51.3%; in data set [7] it was 49%.

Take `Cc1cc(N2CCN(C(=O)CCl)CC2)nc(C(C)C)n1` [PCM-0102638]: the OTUB2 in data set [1] was 0. The NUDT7 in data set [2] worked out at 0. In addition, the PCAF in data set [3] is reported as 0. Moreover, the BSA in data set [4] is 0.11. Besides, the viability at 48 h, 10 µM in data set [5] came to 89.8%; in data set [6], 107%; in data set [7], 97.7%.

`O=C(CCl)Nc1nc2ccccc2s1` [PCM-0102698] had an OTUB2 in data set [1] of 0.07. This compound returned an NUDT7 in data set [2] of 0.83. The PCAF in data set [3] was found to be 0. Further, the BSA in data set [4] is 0. In addition, the viability at 48 h, 10 µM was 65.6% in data set [5], 77.5% in data set [6] and 64.2% in data set [7].

Take `O=C(CCl)Nc1ccccc1C(=O)O` [PCM-0102307]: the OTUB2 in data set [1] is on record as 0. The NUDT7 in data set [2] was determined as 0. This compound also had a PCAF in data set [3] of 0. Also, in data set [4], the BSA is 0. In addition, the viability at 48 h, 10 µM is 78.8% in data set [5], 96.5% in data set [6] and 105% in data set [7].

Compound `CNC(=O)C1CN(C(=O)CCl)c2ccccc2O1` (stereo not drawn) [PCM-0102221] gave an OTUB2 in data set [1] of 0.15. In addition, the NUDT7 in data set [2] is 0. Also, the PCAF in data set [3] worked out at 0. For the same compound, the BSA in data set [4] was 0. Moreover, the viability at 48 h, 10 µM in data set [5] worked out at 53%; in data set [6] it was 58.1%; in data set [7] it was 82.1%.

Consider `CN(Cc1ccc(Cl)c(Cl)c1)C(=O)CCl` [PCM-0102349], for which, in data set [1], the OTUB2 is listed as 0. Also, in data set [2], the NUDT7 was determined as 0.59. Also, the PCAF in data set [3] was 0. The BSA in data set [4] came to 0. Further, the figures for the viability at 48 h, 10 µM in data set [5], in data set [6] and in data set [7] were 1.4%, 3.9% and 1.7%, respectively.

In turn, `O=C(CCl)N(c1ccc(F)cc1)C1C=CS(=O)(=O)C1` (stereo not drawn) [PCM-0102868] displayed an OTUB2 in data set [1] of 0. For the same compound, in data set [2], the NUDT7 came to 0.34. The same compound gave a PCAF in data set [3] of 0. Besides, the BSA in data set [4] is listed as 0. In addition, the values for the viability at 48 h, 10 µM in data set [5], in data set [6] and in data set [7] were 6.2%, 33.4% and 27.9%, respectively.

Consider `O=C(CCl)N1CCN(S(=O)(=O)c2ccc(Cl)s2)CC1` [PCM-0102121], for which, in data set [1], the OTUB2 was determined as 0. In data set [2], this compound gave an NUDT7 of 0.15. In addition, the PCAF in data set [3] amounted to 0. The compound further yielded a BSA in data set [4] of 0. Also, the viability at 48 h, 10 µM in data set [5] turned out to be 2%; in data set [6], 20.6%; in data set [7], 1.7%.

In data set [1], `Cc1ccc(NC(=O)NC(=O)CCl)c(C)c1` [PCM-0102171] displayed an OTUB2 of 0.1. The compound further had an NUDT7 in data set [2] of 0.2. Moreover, the PCAF in data set [3] is on record as 0. This compound gave a BSA in data set [4] of 0. For the same compound, the viability at 48 h, 10 µM in data set [5] amounted to 74.7%; in data set [6], 53.9%; in data set [7], 78.8%.

In data set [1], `Cc1ccc(CNC(=O)CCl)cc1F` [PCM-0102959] registered an OTUB2 of 0.5. Also, the NUDT7 in data set [2] worked out at 0. Besides, the PCAF in data set [3] is 0. Besides, the BSA in data set [4] stood at 0. For the same compound, the viability at 48 h, 10 µM was determined as 62.6% in data set [5], 84% in data set [6] and 86.6% in data set [7].
